Experimental data: patent US4175081A, “5-Substituted thiadiazole ureas” (priority 1977, dated 1979)

How the values were obtained:
Crabgrass (CG) [1] = test: Pre-emergence herbicide test; type: in vivo, Digitaria sanquinalis; details: Digitaria sanguinalis, pre-emergence, 336 h, two weeks after treatment; for pest or weed control at 4483.4 g/ha: 4 lb/acre
Procedure, shortened: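 Crabgrass (Digitaria sanquinalis) was surface seeded in 3' plastic pots of potting soil, covered with screened soil, and watered by sub-irrigation in greenhouse trays. Pots were seeded one day before spraying in a hood with a moving belt and fixed nozzle. Plants stayed in the greenhouse on sub-irrigation, and pre-emergence control was rated visually two weeks after treatment.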

Corn (CN) = test: Pre-emergence herbicide test; type: in vivo; details: Zea mays, 336 h, two weeks after treatment; for pest or weed control at 4483.4 g/ha: 4 lb/acre
Procedure, shortened: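 Visual injury/control ratings were made 2 weeks post-spray on corn pots seeded (4 seeds, seed-diameter depth) the day before treatment. Application was a belt-hood spray of 38 gal/acre delivering 8 lbs active per acre, with a 4 lbs/acre rate also formulated. Watering was by sub-irrigation throughout.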

Turnip (TP) [2] = test: Post-emergence herbicide test; type: in vivo, Brassica sp.; details: Brassica rapa, post-emergence, 336 h, two weeks after treatment; for pest or weed control at 4483.4 g/ha: 4 lb/acre
Procedure, shortened: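 A greenhouse post-emergence herbicide test on turnip. Seeds were sown on the surface of potting soil in 3' plastic pots, lightly covered with screened soil and watered from below. Planting was timed so seedlings had 1 or 2 true leaves above the cotyledons at spraying, done in a hood with a fixed nozzle. Control or injury was scored by eye after two weeks.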

Amaranth pigweed (PW) = test: Pre-emergence herbicide test; type: in vivo, Amaranthus retroflexus; details: 336 h, two weeks after treatment; for pest or weed control at 4483.4 g/ha: 4 lb/acre
Procedure: All crop and weed species were planted individually in 3' plastic pots containing potting soil. Four seeds each of corn, cotton, and snapbeans were seeded to a depth equal to the diameter of the seed. All other species were surface seeded and sprinkled with screened soil in an amount sufficient to cover the seed. Immediately after planting, all pots were watered by sub-irrigation in greenhouse trays. Pots for the pre-emergence phase were seeded one day before treatment.
Compounds were tested at rates of application equivalent to 8 lbs. of actual compound per acre in a spray volume of 38 gallons per acre. Spray hood constants required to deliver the above volume are as follows:
Formulations for spray applications were prepared in 50 ml volumes with the following three components:
Formulations for the 4 lbs/acre rate were prepared by adjusting the amount of active ingredient accordingly.
Spray applications were made in a hood containing a removable belt and fixed spray nozzle. For passage through the spray hood, one pot of each specie (pre-emergence phase) was placed on the rear half of the flat. Treatments were removed to the greenhouse after spraying. Watering during the observation period was done only by sub-irrigation.
Two weeks after treatment, pre- and post-emergence injury or control was visually rated, and the results were as shown in the following tables. Pre-emergence data are provided in TABLE III and post-emergence data are provided in TABLE IV, for compounds having the formula illustrated in TABLE I. Correspondingly, pre-emergence and post-emergence data, respectively, are set forth in TABLES V AND VI, for compounds having the formula illustrated in TABLE II.

Barnyard grass (BG) = test: Pre-emergence herbicide test; type: in vivo; details: Echinochloa crus-galli, 336 h, two weeks after treatment; for pest or weed control at 4483.4 g/ha: 4 lb/acre
Procedure, shortened: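 Greenhouse pre-emergence spray test: pots seeded one day before treatment received compound at rates of 8 or 4 lb/acre (38 gal/acre). Visual injury/control scores for Echinochloa crus-galli taken at two weeks, with watering by sub-irrigation only.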

Bean (BN) [3] = test: Post-emergence herbicide test; type: in vivo, Phaseolus vulgaris var. Black Valentine; details: Phaseolus vulgaris, post-emergence, 336 h, two weeks after treatment; for pest or weed control at 4483.4 g/ha: 4 lb/acre
Procedure, shortened: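 Bean seedlings (Phaseolus vulgaris var. Black Valentine) were grown in potting soil in 3' pots until the primary leaves expanded. They were then sprayed under a hood with a removable belt and fixed nozzle, using 50 ml formulations. Afterward they were returned to the greenhouse and watered only by sub-irrigation. Percent control was judged visually two weeks after treatment.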

Crabgrass (CG) [4] = test: Post-emergence herbicide test; type: in vivo, Digitaria sanquinalis; details: Digitaria sanguinalis, post-emergence, 336 h, two weeks after treatment; for pest or weed control at 4483.4 g/ha: 4 lb/acre
Procedure, shortened: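 Crabgrass (Digitaria sanquinalis) was surface seeded individually in 3' plastic pots of potting soil, covered with screened soil, and watered by sub-irrigation in greenhouse trays. Planting was staggered so seedlings reached the target stage together. Post-emergence sprays were applied in a hood with a removable belt and fixed nozzle, and control was visually rated two weeks after treatment.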

Johnson grass (JG) = test: Pre-emergence herbicide test; type: in vivo, Sorgum helepense; details: Sorghum halepense, 336 h, two weeks after treatment; for pest or weed control at 4483.4 g/ha: 4 lb/acre
Procedure, shortened: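 Visual injury or control rating two weeks post-treatment, after pre-emergence spray of 8 or 4 lbs active per acre (38 gal/acre) onto pots sown the previous day. Greenhouse watering by sub-irrigation only.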

Turnip (TP) [5] = test: Pre-emergence herbicide test; type: in vivo, Brassica sp.; details: Brassica rapa, pre-emergence, 336 h, two weeks after treatment; for pest or weed control at 4483.4 g/ha: 4 lb/acre
Procedure, shortened: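 In this pre-emergence greenhouse test, turnip was seeded on the surface of potting soil in 3' plastic pots, lightly covered with screened soil, and watered from below. One day later the pots were sprayed in a belt-fed spray hood. Watering continued only by sub-irrigation, and percent control was visually scored two weeks after treatment.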

Cotton (CT) [6] = test: Pre-emergence herbicide test; type: in vivo, Gossypium hirsutum var. DPL smooth leaf; details: Gossypium hirsutum, 336 h, two weeks after treatment; for pest or weed control at 4483.4 g/ha: 4 lb/acre
Procedure, shortened: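 Visual injury/control ratings were taken at two weeks post-spray. Pots seeded a day earlier received compound pre-emergence at 8 lbs/acre, or 4 lbs/acre, in a 38 gallon/acre spray volume, and were then held in the greenhouse, watered only from below.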

Cotton (CT) [7] = test: Post-emergence herbicide test; type: in vivo, Gossypium hirsutum var. DPL smooth leaf; details: Gossypium hirsutum, post-emergence, 336 h, two weeks after treatment; for pest or weed control at 4483.4 g/ha: 4 lb/acre
Procedure, shortened: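 This greenhouse post-emergence test measured how well spray treatments controlled cotton. Seedlings of Gossypium hirsutum var. DPL smooth leaf, with expanded cotyledons and a first true leaf 1' in length, were sprayed with 50 ml formulations in a belt-fed spray hood. They were then returned to the greenhouse and watered only by sub-irrigation. Injury was scored visually as % control after two weeks.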

Bean (BN) [8] = test: Pre-emergence herbicide test; type: in vivo, Phaseolus vulgaris var. Black Valentine; details: Phaseolus vulgaris, 336 h, two weeks after treatment
Procedure, shortened: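 Visual injury/control ratings were taken two weeks post-spray on sub-irrigated Phaseolus vulgaris var. Black Valentine. Pots were sown a day before treatment. Pre-emergence spray delivered 8 lbs actual compound per acre (or 4 lbs/acre) at 38 gallons per acre.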

SMILES: CCCC(C)c1nnc(NC(=O)NC)s1 (centres unmarked) [Example 83]
- pest or weed control at 4483.4 g/ha (Crabgrass (CG) [1]): 90%
- pest or weed control at 4483.4 g/ha (Corn (CN)): 10%
- pest or weed control at 4483.4 g/ha (Turnip (TP) [2]): 90%
- pest or weed control at 4483.4 g/ha (Amaranth pigweed (PW)): 80%
- pest or weed control at 4483.4 g/ha (Barnyard grass (BG)): 50%
- pest or weed control at 4483.4 g/ha (Bean (BN) [3]): 40%
- pest or weed control at 4483.4 g/ha (Crabgrass (CG) [4]): 10%
- pest or weed control at 4483.4 g/ha (Johnson grass (JG)): 60%
- pest or weed control at 4483.4 g/ha (Turnip (TP) [5]): 10%
- pest or weed control at 4483.4 g/ha (Cotton (CT) [6]): 10%
- pest or weed control at 4483.4 g/ha (Cotton (CT) [7]): 10%

SMILES: CCSc1nnc(N(C)C(=O)NC)s1 [Example 89]
- pest or weed control at 560.425 g/ha (Crabgrass (CG) [1]; 0.5 lb/acre): 50%
- pest or weed control at 1120.85 g/ha (Crabgrass (CG) [1]; 1 lb/acre): 90%
- pest or weed control at 2241.7 g/ha (Crabgrass (CG) [1]; 2 lb/acre): 90%
- pest or weed control at 4483.4 g/ha (Crabgrass (CG) [1]): 100%
- pest or weed control at 560.425 g/ha (Corn (CN); 0.5 lb/acre): 10%
- pest or weed control at 1120.85 g/ha (Corn (CN); 1 lb/acre): 50%
- pest or weed control at 2241.7 g/ha (Corn (CN); 2 lb/acre): 40%
- pest or weed control at 4483.4 g/ha (Corn (CN)): 50%
- pest or weed control at 560.425 g/ha (Turnip (TP) [2]; 0.5 lb/acre): 100%
- pest or weed control at 1120.85 g/ha (Turnip (TP) [2]; 1 lb/acre): 100%
- pest or weed control at 2241.7 g/ha (Turnip (TP) [2]; 2 lb/acre): 100%
- pest or weed control at 4483.4 g/ha (Turnip (TP) [2]): 100%
- pest or weed control at 560.425 g/ha (Amaranth pigweed (PW); 0.5 lb/acre): 70%
- pest or weed control at 1120.85 g/ha (Amaranth pigweed (PW); 1 lb/acre): 100%
- pest or weed control at 2241.7 g/ha (Amaranth pigweed (PW); 2 lb/acre): 100%
- pest or weed control at 4483.4 g/ha (Amaranth pigweed (PW)): 100%
- pest or weed control at 560.425 g/ha (Barnyard grass (BG); 0.5 lb/acre): 30%
- pest or weed control at 1120.85 g/ha (Barnyard grass (BG); 1 lb/acre): 80%
- pest or weed control at 2241.7 g/ha (Barnyard grass (BG); 2 lb/acre): 80%
- pest or weed control at 4483.4 g/ha (Barnyard grass (BG)): 100%
- pest or weed control at 560.425 g/ha (Bean (BN) [3]; 0.5 lb/acre): 90%
- pest or weed control at 1120.85 g/ha (Bean (BN) [3]; 1 lb/acre): 100%
- pest or weed control at 2241.7 g/ha (Bean (BN) [3]; 2 lb/acre): 100%
- pest or weed control at 4483.4 g/ha (Bean (BN) [3]): 100%
- pest or weed control at 560.425 g/ha (Crabgrass (CG) [4]; 0.5 lb/acre): 40%
- pest or weed control at 1120.85 g/ha (Crabgrass (CG) [4]; 1 lb/acre): 50%
- pest or weed control (Crabgrass (CG) [4]; 2 lb/acre): 90%
- pest or weed control at 4483.4 g/ha (Crabgrass (CG) [4]): 90%
- pest or weed control at 560.425 g/ha (Johnson grass (JG); 0.5 lb/acre): 40%
- pest or weed control at 1120.85 g/ha (Johnson grass (JG); 1 lb/acre): 50%
- pest or weed control at 2241.7 g/ha (Johnson grass (JG); 2 lb/acre): 80%
- pest or weed control at 4483.4 g/ha (Johnson grass (JG)): 70%
- pest or weed control at 560.425 g/ha (Turnip (TP) [5]; 0.5 lb/acre): 30%
- pest or weed control at 1120.85 g/ha (Turnip (TP) [5]; 1 lb/acre): 70%
- pest or weed control at 2241.7 g/ha (Turnip (TP) [5]; 2 lb/acre): 80%
- pest or weed control at 4483.4 g/ha (Turnip (TP) [5]): 90%
- pest or weed control at 560.425 g/ha (Bean (BN) [8]; 0.5 lb/acre): 10%
- pest or weed control at 1120.85 g/ha (Bean (BN) [8]; 1 lb/acre): 10%
- pest or weed control at 2241.7 g/ha (Bean (BN) [8]; 2 lb/acre): 10%
- pest or weed control at 4483.4 g/ha (Bean (BN) [8]; 4 lb/acre): 10%
- pest or weed control at 560.425 g/ha (Cotton (CT) [6]; 0.5 lb/acre): 10%
- pest or weed control at 1120.85 g/ha (Cotton (CT) [6]; 1 lb/acre): 10%
- pest or weed control at 2241.7 g/ha (Cotton (CT) [6]; 2 lb/acre): 10%
- pest or weed control at 4483.4 g/ha (Cotton (CT) [6]): 50%
- pest or weed control at 560.425 g/ha (Cotton (CT) [7]; 0.5 lb/acre): 90%
- pest or weed control at 1120.85 g/ha (Cotton (CT) [7]; 1 lb/acre): 100%
- pest or weed control at 2241.7 g/ha (Cotton (CT) [7]; 2 lb/acre): 100%
- pest or weed control at 4483.4 g/ha (Cotton (CT) [7]): 100%
